PMC4300089, “Structure-Guided Design of Selective Epac1 and Epac2 Agonists” (PLoS Biology, 2015)

Assays:
[1] = molecular target: T1, Epac1 (Homo sapiens, UniProt O95398); assay: Cellular Epac activity: Rap•GTP levels in U2OS cells stably expressing Epac1; format: cell-based
T1 construct: pBabe-Flag-Epac1 (Epac1, homo sapiens, amino acids 1–881); expressed in transfected cells; host or cells: U2OS
T1 sequence (O95398 1-881 isoform O95398-3): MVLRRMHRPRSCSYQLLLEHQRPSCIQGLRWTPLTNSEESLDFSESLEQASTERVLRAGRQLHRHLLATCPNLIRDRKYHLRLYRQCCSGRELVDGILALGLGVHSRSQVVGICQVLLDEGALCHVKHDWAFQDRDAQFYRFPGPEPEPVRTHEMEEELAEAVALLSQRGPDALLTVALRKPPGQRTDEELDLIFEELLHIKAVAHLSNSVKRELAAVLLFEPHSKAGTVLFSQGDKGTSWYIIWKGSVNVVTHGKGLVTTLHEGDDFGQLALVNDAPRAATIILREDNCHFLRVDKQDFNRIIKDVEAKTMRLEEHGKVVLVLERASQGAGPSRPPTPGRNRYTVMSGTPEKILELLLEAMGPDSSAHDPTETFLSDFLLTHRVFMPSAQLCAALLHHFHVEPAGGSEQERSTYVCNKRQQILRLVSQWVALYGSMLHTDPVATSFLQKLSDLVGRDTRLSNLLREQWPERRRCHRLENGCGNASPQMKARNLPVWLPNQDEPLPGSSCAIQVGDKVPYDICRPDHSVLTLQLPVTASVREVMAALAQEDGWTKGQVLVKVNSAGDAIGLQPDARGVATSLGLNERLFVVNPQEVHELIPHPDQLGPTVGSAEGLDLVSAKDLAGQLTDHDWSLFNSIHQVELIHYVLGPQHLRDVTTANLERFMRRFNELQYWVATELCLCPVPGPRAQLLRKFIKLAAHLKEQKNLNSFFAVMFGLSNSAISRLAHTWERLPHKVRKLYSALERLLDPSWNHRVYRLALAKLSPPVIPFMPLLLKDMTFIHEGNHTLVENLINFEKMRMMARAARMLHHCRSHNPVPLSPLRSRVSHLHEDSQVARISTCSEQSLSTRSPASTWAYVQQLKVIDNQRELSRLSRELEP
Description: Rap•GTP levels were determined by precipitating GTP-bound Rap specifically from cell lysates and subsequent western Blotting with an α-Rap antibody (Santa Cruz Biotechnology). To generate stable cell lines, U2OS cells were transfected with pBabe-Flag-Epac1 (Epac1, homo sapiens, amino acids 1–881) or pBabe-Flag-Epac2 (Epac2, mus musculus, amino acids 1–993), selected for Epac expression and maintained under selection with 2 mg/l puromycin. The cells were cultured according to standard protocols. The activity of PKA was determined by western blotting with a monoclonal α-VASP antibody (BD Transduction Laboratories). Blots were developed by enhanced chemiluminescence (ECL) and the use of X-ray films; for quantification films were scanned. The intensities of the Rap•GTP bands and the upper band of VASP (P-VASP) were determined for each condition in ImageJ and normalized to the stimulation with forskolin and IBMX for each blot.

[2] = molecular target: T2, Epac2^fl (Mus musculus, UniProt Q9EQZ6); assay: Epac activation assay, full length Epac2; format: biochemical; set-up: made in house
T2 sequence (Q9EQZ6 1-993 isoform Q9EQZ6-3): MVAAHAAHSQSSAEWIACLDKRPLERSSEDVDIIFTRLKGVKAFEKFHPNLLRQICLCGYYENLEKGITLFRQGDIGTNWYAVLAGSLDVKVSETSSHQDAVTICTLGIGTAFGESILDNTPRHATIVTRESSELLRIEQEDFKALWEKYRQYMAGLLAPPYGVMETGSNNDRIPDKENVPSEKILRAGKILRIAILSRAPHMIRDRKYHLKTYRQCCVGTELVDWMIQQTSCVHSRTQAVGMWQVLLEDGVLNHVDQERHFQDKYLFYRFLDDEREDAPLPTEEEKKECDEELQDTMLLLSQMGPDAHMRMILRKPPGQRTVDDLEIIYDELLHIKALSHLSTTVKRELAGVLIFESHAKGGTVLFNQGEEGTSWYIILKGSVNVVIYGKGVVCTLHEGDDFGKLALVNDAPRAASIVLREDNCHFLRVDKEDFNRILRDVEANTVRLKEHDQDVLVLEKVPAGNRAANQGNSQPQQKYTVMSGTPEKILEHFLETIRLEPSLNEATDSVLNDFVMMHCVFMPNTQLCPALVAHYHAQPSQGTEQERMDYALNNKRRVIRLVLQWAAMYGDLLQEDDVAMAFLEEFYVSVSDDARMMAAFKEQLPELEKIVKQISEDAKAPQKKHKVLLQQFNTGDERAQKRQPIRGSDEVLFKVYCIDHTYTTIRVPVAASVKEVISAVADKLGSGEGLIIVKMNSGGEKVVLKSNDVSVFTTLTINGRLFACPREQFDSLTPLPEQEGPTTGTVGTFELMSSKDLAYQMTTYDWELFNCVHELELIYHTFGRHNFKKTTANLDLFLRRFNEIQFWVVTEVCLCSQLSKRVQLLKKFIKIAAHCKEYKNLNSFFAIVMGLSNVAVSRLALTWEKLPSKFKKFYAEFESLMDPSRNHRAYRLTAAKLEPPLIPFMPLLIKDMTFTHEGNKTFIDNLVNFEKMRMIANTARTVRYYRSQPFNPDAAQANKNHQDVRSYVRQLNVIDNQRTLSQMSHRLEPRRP
Description: Murine Epac2 was used as all previous structural studies were performed with it.
The activity of Epac was determined by a fluorescence assay. […] The fluorescence intensity of Rap1B•mGDP is approximately twice that of free mGDP, and thus, nucleotide exchange can be observed as a decay in fluorescence upon the addition of excess unlabeled GDP.

Compound: Nc1ncnc2c1nc(SCc1ccccc1)n2[C@@H]1O[C@@H]2CO[P@](O)(=S)O[C@H]2[C@H]1O [S-220, Sp-8-BnT-cAMPS]
- activation of Epac1 in cells [1]: only minor effects
- rel. RapGTP ([1]; relative to induction with forskolin and IBMX, Fig. 6C): 0.6097
- kobs ([2]; 0.001 μM compound): 1.9e-05 s⁻¹
- kobs ([2]; 0.03 μM compound): 4.4e-05 s⁻¹
- kobs ([2]; 0.04 μM compound): 4.9e-05 s⁻¹
- kobs ([2]; 0.05 μM compound): 5.4e-05 s⁻¹
- kobs ([2]; 0.06 μM compound): 6e-05 s⁻¹
- kobs ([2]; 0.07 μM compound): 6.8e-05 s⁻¹
- kobs ([2]; 0.08 μM compound): 6.9e-05 s⁻¹
- kobs ([2]; 0.1 μM compound): 9.1e-05 s⁻¹
- kobs ([2]; 0.2 μM compound): 0.00016 s⁻¹
- kobs ([2]; 0.3 μM compound): 0.000217 s⁻¹
- kobs ([2]; 0.4 μM compound): 0.000258 s⁻¹
- kobs ([2]; 0.5 μM compound): 0.000295 s⁻¹
- kobs ([2]; 0.6 μM compound): 0.000369 s⁻¹
- kobs ([2]; 0.7 μM compound): 0.000402 s⁻¹
- kobs ([2]; 0.8 μM compound): 0.000428 s⁻¹
- kobs ([2]; 1 μM compound): 0.000509 s⁻¹
- kobs ([2]; 2 μM compound): 0.000819 s⁻¹
- kobs ([2]; 3 μM compound): 0.000975 s⁻¹
- kobs ([2]; 4 μM compound): 0.00102 s⁻¹
- kobs ([2]; 5 μM compound): 0.0011 s⁻¹
- kobs ([2]; 6 μM compound): 0.00114 s⁻¹
- kobs ([2]; 7 μM compound): 0.00118 s⁻¹
- kobs ([2]; 8 μM compound): 0.00118 s⁻¹
- kobs ([2]; 10 μM compound): 0.00125 s⁻¹
- kobs ([2]; 20 μM compound): 0.00149 s⁻¹
- kobs ([2]; 30 μM compound): 0.00153 s⁻¹
- kobs ([2]; 40 μM compound): 0.00152 s⁻¹
- kobs ([2]; 50 μM compound): 0.0015 s⁻¹
- kobs ([2]; 60 μM compound): 0.00155 s⁻¹
- kobs ([2]; 70 μM compound): 0.00155 s⁻¹
- kobs ([2]; 80 μM compound): 0.00152 s⁻¹
- kobs ([2]; 100 μM compound): 0.0015 s⁻¹
- AC50 ([2]; Epac2^fl): 2100 nM
- potency relative to cAMP by activation potential (times more potently than cAMP) ([2]; Epac2^fl): 200 times
- Rel. kmax ([2]; Epac2^fl, maximal activity relative to cAMP): 6.6
